Assay results taken from patent US6887896B1, “7-[(7-Alkoxy)-chrom-3-en-6-yl]-heptatrienoic acid and 7-[(3-alkoxy)-5,6-dihydronaphthalen-2-yl]-heptatrienoic acid derivatives having serum glucose reducing activity” (Allergan, Inc., priority 2003, dated 2005).

Key:
[1] = target: T1, RARα (Homo sapiens, UniProt P10276); assay: ligand binding assay, RARα; conditions: for Kd: Table 9 (Formula F), read-out: RAR α Kd; for Ki: read-out: RAR Bind. Ki α
T1 sequence (P10276 1-462): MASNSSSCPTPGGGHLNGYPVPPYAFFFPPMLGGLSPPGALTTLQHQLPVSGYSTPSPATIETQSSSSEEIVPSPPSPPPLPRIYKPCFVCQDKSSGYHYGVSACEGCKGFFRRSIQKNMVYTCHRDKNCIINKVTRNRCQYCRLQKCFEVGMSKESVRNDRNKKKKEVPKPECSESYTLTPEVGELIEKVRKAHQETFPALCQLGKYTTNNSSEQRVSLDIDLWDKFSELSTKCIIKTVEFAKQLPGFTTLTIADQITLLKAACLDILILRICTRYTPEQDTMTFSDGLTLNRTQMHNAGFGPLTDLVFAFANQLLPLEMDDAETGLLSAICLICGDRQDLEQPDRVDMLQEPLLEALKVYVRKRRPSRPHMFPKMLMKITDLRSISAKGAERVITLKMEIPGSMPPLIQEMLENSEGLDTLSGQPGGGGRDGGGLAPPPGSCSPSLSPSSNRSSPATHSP
Description: (§1) Specifically, one such assay is a chimeric receptor transactivation assay which tests for agonist-like activity in the R RAPE and RAR7 receptor subtypes, and which is based on work published by Feigner, P. L. and Holm, M (1989) Focus, 112 is described in detail in U.S. Pat. No. 5,455,265. The specification of U.S. Pat. No. 5,455,265 is hereby expressly incorporated by reference. A holoreceptor transactivation assay and a ligand binding assay which measure the antagonist/agonist like activity of the compounds of the invention, or their ability to bind to the several retinoid receptor subtypes, respectively, are described in published PCT Application No. WO WO93/11755 (particularly on pages 30-33 and 37-41) published on Jun. 24, 1993, the specification of which is also incorporated herein by reference. A detailed experimental procedure for holoreceptor transactivations has been described by Heyman et al. Cell 68, 397-406, (1992); Allegretto et al. J. Biol. Chem. 268, 26625-26633, and Mangelsdorf et al. The Retinoids: Biology, Chemistry and Medicine, pp 319-349, Raven Press Ltd., New York, which are expressly incorporated herein by reference. The results obtained in this assay are expressed in EC50 numbers, as they are also in the chimeric receptor transactivation assay. The results of the ligand binding assay are expressed in Ki numbers. (See Cheng et al. Biochemical Pharmacology Vol. 22 pp 3099-3108, expressly incorporated herein by reference.)
(§2) Generally speaking, in the tables disclosing the results of transactivation and binding assays the numbers in parentheses indicate efficacy as a percentage compared to the standard compound, (2E,4E,1′S,2′S)-3-methyl-5-[2′-methyl-2′-(5,5,8,8-tetramethyl-5,6,7,8-tetrahydro-naphthalen-2-yl)cyclopropyl]-penta-2,4-dienoic acid and the other numbers indicate the measured EC50 and K; in nanomolar concentration.

[2] = target: T2, RXRβ (UniProt P28704); assay: ligand binding assay, RXRβ; conditions: for Kd: Table 9 (Formula F), read-out: RXR β Kd; for Ki: read-out: RXR Bind Ki β
T2 sequence (P28704 1-520): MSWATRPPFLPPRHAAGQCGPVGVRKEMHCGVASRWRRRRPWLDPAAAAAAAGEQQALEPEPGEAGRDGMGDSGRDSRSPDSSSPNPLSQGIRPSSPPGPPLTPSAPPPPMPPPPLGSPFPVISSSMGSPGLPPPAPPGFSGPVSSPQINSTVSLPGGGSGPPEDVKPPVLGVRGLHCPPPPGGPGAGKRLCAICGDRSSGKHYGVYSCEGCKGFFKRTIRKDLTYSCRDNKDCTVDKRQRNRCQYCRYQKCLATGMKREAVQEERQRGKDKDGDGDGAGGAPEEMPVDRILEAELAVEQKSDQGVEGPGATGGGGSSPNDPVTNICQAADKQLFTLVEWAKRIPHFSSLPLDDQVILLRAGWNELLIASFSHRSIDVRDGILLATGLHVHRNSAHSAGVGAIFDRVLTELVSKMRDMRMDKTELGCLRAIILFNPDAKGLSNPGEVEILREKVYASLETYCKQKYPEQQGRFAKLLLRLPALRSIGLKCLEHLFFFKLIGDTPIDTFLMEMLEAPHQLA
Description: as §1, §2

[3] = target: T3, RXRα (Homo sapiens, UniProt P19793); assay: holoreceptor transactivation assay, RXRα; assay type: cell-based; conditions: for EC50: holoreceptor transactivation, read-out: RXR Trans. EC50 α; for Emax: percentage compared to the standard compound, read-out: RXR Trans. efficacy (number in parentheses) α
T3 construct: expressed in transfected cells
T3 sequence (P19793 1-462): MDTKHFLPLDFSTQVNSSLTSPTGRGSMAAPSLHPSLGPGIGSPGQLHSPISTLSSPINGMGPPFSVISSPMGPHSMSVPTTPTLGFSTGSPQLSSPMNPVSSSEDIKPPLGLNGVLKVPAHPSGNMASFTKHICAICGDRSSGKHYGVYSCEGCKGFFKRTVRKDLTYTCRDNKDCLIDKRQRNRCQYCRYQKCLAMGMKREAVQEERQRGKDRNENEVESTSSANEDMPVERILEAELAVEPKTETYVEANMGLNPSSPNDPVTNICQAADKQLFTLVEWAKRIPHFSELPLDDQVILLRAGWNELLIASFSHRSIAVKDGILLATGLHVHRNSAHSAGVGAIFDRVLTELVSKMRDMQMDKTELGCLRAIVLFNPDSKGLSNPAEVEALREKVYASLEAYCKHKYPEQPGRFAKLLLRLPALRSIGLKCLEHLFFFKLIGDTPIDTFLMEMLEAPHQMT
Description: as §1
Efficacy in a transactivation assay is expressed as a percentage of the maximum potency attained by the compound compared to a standard which, in this case, is the compound named (2E,4E,1′S,2′S)-3-methyl-5-[2′-methyl-2′-(5,5,8,8-tetramethyl-5,6,7,8-tetrahydro-naphthalen-2-yl)-cyclopropyl]-penta-2,4-dienoic acid. This standard compound is described in U.S. Pat. No. 6,114,533.
The specification of this application for patent is organized in several sections in accordance with structural Formulas A through F each of which discloses a group of preferred compounds within the scope of the invention. Tables that disclose the activity of certain exemplary compounds of the invention in the above-described RXR receptor transactivation and binding assays are found in the corresponding sections. […] The transactivation data pertaining to the activation of RXR receptors were obtained in the holoreceptor assay.
as §2

[4] = target: T3, RXRα; assay: ligand binding assay, RXRα; conditions: for Kd: Table 9 (Formula F), read-out: RXR α Kd; for Ki: read-out: RXR Bind Ki α
Description: as §1, §2

SMILES | Kd [1] | Kd [2] | EC50 [3] | Emax [3] | Kd [4] | Ki [1] | Ki [2] | Ki [4]
CCOc1c(\C(C)=C(F)/C=C/C(C)=C/C(=O)O)cc2c(c1Cl)C(C)(C)CC=C2C(C)C [Compound A-177, (2E,4E,6E)-7-(4-Chloro-3-ethoxy-8-isopropyl-5,5-dimethyl-5,6-dihydronaphthalen-2-yl)6-fluoro-3-methyl-octa-2,4,6-trienoic acid] | 60 nM | 12 nM | 0.1 nM | 72% | 2 nM | – | – | –
CCOc1cc2c(cc1\C(CC)=C(F)/C=C/C(C)=C/C(=O)O)C(C)=CC(C)(C)O2 [Compound 132, 7-(7-Ethoxy-2,2,4-trimethyl-2H-chromen-6-yl)-6-fluoro-3-methyl-nona-2E,4E,6E-trienoic acid] | – | – | 759 nM | 15% | – | 148 nM | 1100 nM | 124 nM
CCC1=CC(C)(C)Oc2cc(OC)c(\C(C)=C/C=C/C(C)=C/C(=O)O)cc21 [Compound 42, 7-(4-Ethyl-7-methoxy-2,2-dimethyl-2H-chromen-6-yl)-3-methyl-octa-2E,4E,6Z-trienoic acid] | – | – | 6 nM | 99% | – | 8900 nM | 228 nM | 49 nM
CCOc1cc2c(cc1\C(CC)=C(F)/C=C/C(C)=C/C(=O)O)C=CCC2(C)C [Compound A-77] | – | – | 41 nM | 69% | – | 301 nM | 63 nM | 6 nM
CCOc1cc2c(cc1\C(C)=C/C=C/C(C)=C/C(=O)O)C(CC)=CC(C)(C)O2 [Compound 45, 7-(7-Ethoxy-4-ethyl-2,2-dimethyl-2H-chromen-6-yl)-3-methyl-octa-2E,4E,6Z-trienoic acid] | – | – | 78 nM | 5% | – | 3 nM | 343 nM | 52 nM
COc1cc2c(cc1\C(C)=C/C=C/C(C)=C/C(=O)O)C(C(C)C)=CC(C)(C)O2 [Compound 43, 7-(4-Isopropyl-7-methoxy-2,2-dimethyl-2H-chromen-6-yl)-3-methyl-octa-2E,4E,6Z-trienoic acid] | – | – | 2 nM | 89% | – | 243 nM | 78 nM | 6 nM
CCOc1cc2c(cc1\C(CC)=C(F)/C=C/C(C)=C/C(=O)O)C(CC)=CCC2(C)C [Compound A-78, (2E,4E,6E)-7-(3-Ethoxy-8-ethyl-5,5-dimethyl-5,6-dihydro-naphthalen-2-yl)-6-fluoro-3-methyl-nona-2,4,6-trienoic acid] | – | – | 3 nM | 23% | – | 180 nM | 19 nM | 3 nM
CCOc1cc2c(cc1\C(C)=C(F)/C=C/C(C)=C/C(=O)O)C(C)=CCC2(C)C | – | – | 3 nM | 62% | – | 261 nM | 15 nM | 2 nM
CCOc1c(\C(C)=C(F)/C=C/C(C)=C/C(=O)O)cc2c(c1Cl)OC(C)(C)C=C2C(C)C [Compound 172, 7-(8-Chloro-4-isopropyl-7-ethoxy-2,2-dimethyl-2H-chromen-6-yl)-6-fluoro-3-methyl-octa-2E,4E,6E-trienoic acid] | – | – | 5.4 nM | 52% | – | 404 nM | 85 nM | 10 nM
CCOc1c(\C(CC)=C(F)/C=C/C(C)=C/C(=O)O)cc2c(c1Br)C(C)(C)CC=C2C(C)C [Compound A-170, (2E,4E,6E)-7-(4-Bromo-3-ethoxy-8-isopropyl-5,5-dimethyl-5,6-dihydro-naphthalen-2-yl)-6-fluoro-3-methyl-nona-2,4,6-trienoic acid] | 12 nM | 14 nM | 0.2 nM | 60% | 2 nM | – | – | –
CCOc1cc2c(cc1\C(CC)=C(F)/C=C/C(C)=C/C(=O)O)C(C(C)(C)C)=CCC2(C)C [Compound A-83, (2E,4E,6E)-7-(8-tert-Butyl-3-ethoxy-5,5-dimethyl-5,6-dihydronaphthalen-2-yl)-6-fluoro-3-methyl-nona-2,4,6-trienoic acid] | – | – | 2 nM | 13% | – | 394 nM | 12 nM | 2 nM
COc1c(\C(C)=C(F)/C=C/C(C)=C/C(=O)O)cc2c(c1Cl)OC(C)(C)C=C2C(C)C [Compound 170, 7-(8-Chloro-4-isopropyl-7-methoxy-2,2-dimethyl-2H-chromen-6-yl)-6-fluoro-3-methyl-octa-2E,4E,6E-trienoic acid] | – | – | 0.8 nM | 86% | – | 3400 nM | 7 nM | 2 nM
CC/C(=C/C=C/C(C)=C/C(=O)O)c1cc2c(cc1OC)OC(C)(C)C=C2C(C)C [Compound 44, 7-(4-Isopropyl-7-methoxy-22-dimethyl-2H-chromen-6-yl)-3-methyl-nona-2E,4E,6Z-trienoic acid] | – | – | 0.3 nM | 89% | – | 215 nM | 38 nM | 4 nM
COc1cc2c(cc1\C(C)=C(F)/C=C/C(C)=C/C(=O)O)C(C(C)(C)C)=CC(C)(C)O2 [Compound 122, 7-(4-tert-Butyl-7-methoxy-2,2-dimethyl-2H-chromen-6-yl)-6-fluoro-3-methyl-octa-2E,4E,6E-trienoic acid] | – | – | 5 nM | 36% | – | 800 nM | 110 nM | 11 nM
CCOc1cc2c(cc1\C(C)=C(F)/C=C/C(C)=C/C(=O)O)C(C(C)C)=CCC2(C)C [Compound A-79, (2E,4E,6E)-6-Fluoro-3-(4,4-dimethylethoxy-1-isopropyl-3,4-dihydronaphthalen-7-yl)-3-methyl-2.4,6-octa-trienoic acid] | – | – | 1 nM | 62% | – | 615 nM | 13 nM | 2 nM
